US20250152585A1, “PHARMACEUTICAL COMPOUND” (Duke Street Bio Limited, priority 2022, published 2025)
Read-outs that look alike come from different tables or passages of the source.

Tests used:
[1] = biological target: T1, N-terminally FLAG-tagged PARP2 (amino acids 1-583) (Homo sapiens, UniProt Q9UGN5); assay: PARP2 probe displacement HTRF assay; type: binding; conditions: binned Kd
T1 construct: N-terminally FLAG-tagged PARP2 (amino acids 1-583)
Protocol: Data analysis was performed identical as for PARP1.

[2] = biological target: T2, full length N-terminally FLAG-tagged PARP1 (Homo sapiens, UniProt P09874); assay: PARP1 probe displacement HTRF assay; conditions: for Selectivity: PARP1 over PARP2, ratio Kd (PARP2)/Kd (PARP1); for Kd: binned Kd
[3] = biological target: T2, full length N-terminally FLAG-tagged PARP1; assay: PARP1 biochemical DELFIA assay (auto-PARylation); set-up: recombinant full length human N-terminally FLAG-tagged PARP1
[4] = read-out: PARP1 HTRF, PARP1 probe displacement HTRF
[5] = binned IC50, PARP1 biochemical DELFIA assay
[6] = read-out: PARP1 HTRF, probe displacement HTRF
[7] = binned IC50, biochemical auto-PARylation assay
[8] = PARP1 HTRF, PARP1 probe displacement HTRF

T1 sequence (Q9UGN5 whole entry, the tested form may be a part): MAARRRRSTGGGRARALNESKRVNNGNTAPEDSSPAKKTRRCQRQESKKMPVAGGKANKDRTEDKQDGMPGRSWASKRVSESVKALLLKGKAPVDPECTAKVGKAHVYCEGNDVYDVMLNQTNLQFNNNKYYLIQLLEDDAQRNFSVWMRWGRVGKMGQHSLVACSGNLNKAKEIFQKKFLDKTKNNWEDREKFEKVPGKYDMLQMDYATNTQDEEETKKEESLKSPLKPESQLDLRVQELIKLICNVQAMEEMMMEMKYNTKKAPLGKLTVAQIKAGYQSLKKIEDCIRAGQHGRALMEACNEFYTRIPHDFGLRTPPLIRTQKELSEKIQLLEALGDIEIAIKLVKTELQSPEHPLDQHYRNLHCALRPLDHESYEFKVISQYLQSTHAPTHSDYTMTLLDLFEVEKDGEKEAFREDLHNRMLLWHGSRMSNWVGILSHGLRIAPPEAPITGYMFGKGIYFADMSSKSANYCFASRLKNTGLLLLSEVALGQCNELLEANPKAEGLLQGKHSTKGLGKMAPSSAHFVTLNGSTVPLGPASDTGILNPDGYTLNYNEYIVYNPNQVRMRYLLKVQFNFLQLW
T2 sequence (P09874 whole entry): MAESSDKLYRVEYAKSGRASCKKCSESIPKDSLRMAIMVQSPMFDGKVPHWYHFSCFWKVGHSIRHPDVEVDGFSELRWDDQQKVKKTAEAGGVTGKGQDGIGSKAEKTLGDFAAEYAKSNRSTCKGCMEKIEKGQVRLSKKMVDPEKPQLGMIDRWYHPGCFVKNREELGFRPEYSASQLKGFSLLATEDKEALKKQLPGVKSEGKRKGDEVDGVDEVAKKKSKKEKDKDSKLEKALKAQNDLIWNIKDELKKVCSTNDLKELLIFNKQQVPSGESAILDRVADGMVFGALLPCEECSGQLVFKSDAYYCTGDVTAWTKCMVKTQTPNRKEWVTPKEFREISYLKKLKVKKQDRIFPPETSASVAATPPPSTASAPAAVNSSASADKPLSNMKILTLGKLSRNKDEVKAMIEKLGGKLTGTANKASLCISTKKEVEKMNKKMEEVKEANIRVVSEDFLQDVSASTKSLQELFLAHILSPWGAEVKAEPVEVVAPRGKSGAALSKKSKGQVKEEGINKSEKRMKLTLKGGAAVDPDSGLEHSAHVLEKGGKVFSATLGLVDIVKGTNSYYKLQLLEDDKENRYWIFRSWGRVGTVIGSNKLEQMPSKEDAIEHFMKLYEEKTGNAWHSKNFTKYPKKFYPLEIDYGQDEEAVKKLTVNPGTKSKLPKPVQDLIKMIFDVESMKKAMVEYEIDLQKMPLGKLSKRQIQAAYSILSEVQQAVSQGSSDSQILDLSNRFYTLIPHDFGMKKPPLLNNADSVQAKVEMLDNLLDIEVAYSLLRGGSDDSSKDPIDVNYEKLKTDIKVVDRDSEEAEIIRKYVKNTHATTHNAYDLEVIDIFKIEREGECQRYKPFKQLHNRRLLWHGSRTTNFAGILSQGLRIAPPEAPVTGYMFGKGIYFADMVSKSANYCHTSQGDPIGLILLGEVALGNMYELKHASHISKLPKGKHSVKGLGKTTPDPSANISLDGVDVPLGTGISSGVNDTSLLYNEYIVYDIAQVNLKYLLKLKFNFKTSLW

SMILES	Kd ([1]; PARP2 probe displacement HTRF)	Kd [2, 4]	IC50 [3, 5]	Kd ([1]; probe displacement HTRF)	Kd [2, 6]	IC50 [3, 7]	Kd [2, 8]	Selectivity ([2]; probe displacement HTRF)
CNC(=O)c1ccc(OCCCN2CCCC(c3nc4ccccc4c(=O)[nH]3)C2)cn1 (single isomer, unassigned) [Compound 7a]	100 to 1000 nM	< 10 nM	10 to 100 nM					+++ (+++ indicate a value of at least 100)
CCc1ccc(C2CCN(C3CCN(c4cnc(C(=O)NC)nc4C)CC3)C2)[nH]c1=O (single isomer, unassigned) [Compound 246b]				1000 to 10000 nM	< 10 nM	< 10 nM		+++ (+++ indicate a value of at least 100)
N#Cc1nc(C(=O)NC2CC2)ccc1N1CCC(N2CCC(c3cc4cccc(F)c4c(=O)[nH]3)C2)CC1 (single isomer, unassigned) [Compound 410b]				100 to 1000 nM	< 10 nM	< 10 nM		+++ (+++ indicate a value of at least 100)
CCc1cnc(C2CCN(C3CCC(F)(F)CC3)C2)[nH]c1=O (single isomer, unassigned) [Compound 38b]	> 10000 nM	1000 to 10000 nM	1000 to 10000 nM					− (− indicates a value of less than 10)
CCc1ccc(C2CCN(C3CCN(c4ccc(C(=O)NC5CC5)nc4)CC3)C2)[nH]c1=O (single isomer, unassigned) [Compound 338a]				100 to 1000 nM	< 10 nM	< 10 nM		+++ (+++ indicate a value of at least 100)
CCc1ccc(C2CCN(C3CCN(c4ccc(C(=O)NCCF)nc4F)CC3)C2)[nH]c1=O (single isomer, unassigned) [Compound 322a]				> 10000 nM	< 10 nM	< 10 nM		+++ (+++ indicate a value of at least 100)
CNC(=O)c1ccc(N2CCC(N3CCC(c4cc5c(c(C(F)(F)F)nn5C)c(=O)[nH]4)C3)CC2)c(F)n1 (single isomer, unassigned) [Compound 407a]				100 to 1000 nM	< 10 nM	10 to 100 nM		++ (++ indicates a value of 50 to less than 100)
CNC(=O)c1ccc(N2CCC(N3CCCC(c4nc5onc(C)c5c(=O)[nH]4)C3)CC2)cn1 (single isomer, unassigned) [Compound 159b]	> 10000 nM	100 to 1000 nM	100 to 1000 nM					+ (+ indicates a value of 10 to less than 50)
O=c1[nH]c(C2CCN(C3CCN(c4ccc(F)cc4F)CC3)C2)nc2ccccc12 (single isomer, unassigned) [Compound 107a]	1000 to 10000 nM	10 to 100 nM	10 to 100 nM					+ (+ indicates a value of 10 to less than 50)
CNC(=O)c1ccc(N2CCC(N3CCCC(c4nc5ccccc5c(=O)[nH]4)C3)CC2)c(C)n1 (single isomer, unassigned) [Compound 131a]	1000 to 10000 nM	100 to 1000 nM	10 to 100 nM					+ (+ indicates a value of 10 to less than 50)
CNC(=O)c1ccc(N2CCC(N3CCC(c4nc5onc(C(F)(F)F)c5c(=O)[nH]4)C3)CC2)cn1 (single isomer, unassigned) [Compound 176b]	> 10000 nM	100 to 1000 nM	10 to 100 nM					++ (++ indicates a value of 50 to less than 100)
N#Cc1ccc(N2CCC(N3CCC(c4nc5ccccc5c(=O)[nH]4)C3)CC2)cn1 (single isomer, unassigned) [Compound 69b]	100 to 1000 nM	10 to 100 nM	10 to 100 nM					− (− indicates a value of less than 10)
CNC(=O)c1ccc(N2CCC(N3CCC(c4nc5c(c(=O)[nH]4)CCCN5)C3)CC2)cn1 (single isomer, unassigned) [Compound 214b]	100 to 1000 nM	< 10 nM	< 10 nM					+++ (+++ indicate a value of at least 100)
CNC(=O)c1ccc(N2CCC(N3CCC(c4nc5[nH]nc(C(F)(F)F)c5c(=O)[nH]4)C3)CC2)cn1 (single isomer, unassigned) [Compound 162b, N-methyl-5-(4-(3-(4-oxo-3-(trifluoromethyl)-4,5-dihydro-1H-pyrazolo[3,4-d]pyrimidin-6-yl)pyrrolidin-1-yl)piperidin-1-yl)picolinamide]	10 to 100 nM		< 10 nM				< 10 nM	++ (++ indicates a value of 50 to less than 100)
CNC(=O)c1ccc(OCCN2CCCC(c3nc4ccccc4c(=O)[nH]3)C2)cn1 (single isomer, unassigned) [Compound 65b]	1000 to 10000 nM	100 to 1000 nM	100 to 1000 nM					+ (+ indicates a value of 10 to less than 50)
CNC(=O)c1ccc(N2CCC(N3CCC(c4nc5c(c(=O)[nH]4)CCC5)C3)CC2)cn1 (single isomer, unassigned) [Compound 283b]				1000 to 10000 nM	< 10 nM	< 10 nM		+++ (+++ indicate a value of at least 100)
CNC(=O)c1ccc(N2CCC(N3CCC(c4nc5[nH]nc(C(F)(F)F)c5c(=O)[nH]4)C3)CC2)cn1 (single isomer, unassigned) [Compound 162a, N-methyl-5-(4-(3-(4-oxo-3-(trifluoromethyl)-4,5-dihydro-1H-pyrazolo[3,4-d]pyrimidin-6-yl)pyrrolidin-1-yl)piperidin-1-yl)picolinamide]	100 to 1000 nM		10 to 100 nM				10 to 100 nM	− (− indicates a value of less than 10)
CNC(=O)c1cc(C)c(N2CCC(N3CCC(c4cc5ccccc5c(=O)[nH]4)C3)CC2)c(C)n1 (single isomer, unassigned) [Compound 205b]	1000 to 10000 nM	10 to 100 nM	10 to 100 nM					+ (+ indicates a value of 10 to less than 50)
CNS(=O)(=O)c1ccc(N2CCC(N3CCC(c4cc5ccccc5c(=O)[nH]4)C3)CC2)cc1 (single isomer, unassigned) [Compound 346a]				1000 to 10000 nM	< 10 nM	< 10 nM		+++ (+++ indicate a value of at least 100)

More lines, main results first:

Kd ([1]; PARP2 probe displacement HTRF)	Kd [2, 4]	IC50 [3, 5]	Kd ([1]; probe displacement HTRF)	Kd [2, 6]	IC50 [3, 7]	Kd [2, 8]	SMILES	Selectivity ([2]; probe displacement HTRF)
1000 to 10000 nM	< 10 nM	< 10 nM					CNC(=O)c1ccc(N2CCC(N3CCC(c4ccc(Cl)c(=O)[nH]4)C3)CC2)cn1 (single isomer, unassigned) [Compound 201b]	+++ (+++ indicate a value of at least 100)
			< 10 nM	< 10 nM	< 10 nM		CNC(=O)c1ccc(N2CCC(N3CCC(c4cc5c(c(C(F)(F)F)nn5C)c(=O)[nH]4)C3)CC2)cn1 (racemic) [Compound 244rac]	− (− indicates a value of less than 10)
1000 to 10000 nM		10 to 100 nM				10 to 100 nM	CNC(=O)c1ccc(N2CCC(N3CCC(c4cc5[nH]nc(C(F)(F)F)c5c(=O)[nH]4)C3)CC2)cn1 (single isomer, unassigned) [Compound 194a, N-methyl-5-(4-(3-(4-oxo-3-(trifluoromethyl)-4,5-dihydro-1H-pyrazolo[4,3-c]pyridin-6-yl)pyrrolidin-1-yl)piperidin-1-yl)picolinamide]	+ (+ indicates a value of 10 to less than 50)
100 to 1000 nM	10 to 100 nM	10 to 100 nM					CNC(=O)c1ccc(N2CCC(N3CCC(c4nc5cccc(C(F)(F)F)c5c(=O)[nH]4)C3)CC2)cn1 (single isomer, unassigned) [Compound 86a]	+ (+ indicates a value of 10 to less than 50)
> 10000 nM		100 to 1000 nM				100 to 1000 nM	CCc1ccc(C2CCCN(C3CCN(c4ccc(C(=O)NC)nc4)CC3)C2)[nH]c1=O (single isomer, unassigned) [Compound 53b, 5-{4-[3-(5-ethyl-6-oxo-1H-pyridin-2-yl)piperidin-1-yl]piperidin-1-yl}-N-methylpyridine-2-carboxamide]	+ (+ indicates a value of 10 to less than 50)
100 to 1000 nM	< 10 nM	< 10 nM					CCNC(=O)c1ccc(N2CCC(N3CCC(c4ccc(CC)c(=O)[nH]4)C3)CC2)cn1 (racemic) [Compound 171rac]	+++ (+++ indicate a value of at least 100)
100 to 1000 nM	10 to 100 nM	10 to 100 nM					CCNC(=O)c1ccc(N2CCC(N3CCC(c4nc5ccccc5c(=O)[nH]4)C3)CC2)cn1 (single isomer, unassigned) [Compound 111a]	+ (+ indicates a value of 10 to less than 50)
100 to 1000 nM		< 10 nM				< 10 nM	CNC(=O)c1ccc(N2CCC(N3CCC(c4cc5ccc(F)cc5c(=O)[nH]4)C3)CC2)cn1 (single isomer, unassigned) [Compound 154a, 5-(4-(3-(7-fluoro-1-oxo-1,2-dihydroisoquinolin-3-yl)pyrrolidin-1-yl)piperidin-1-yl)-N-methylpicolinamide]	+++ (+++ indicate a value of at least 100)
			1000 to 10000 nM	< 10 nM	< 10 nM		CCc1cc(C)c(C2CCN(C3CCN(c4ccc(C(=O)NC)nc4)CC3)C2)[nH]c1=O (single isomer, unassigned) [Compound 363b]	+++ (+++ indicate a value of at least 100)
100 to 1000 nM		< 10 nM				< 10 nM	CNC(=O)c1ccc(N2CCC(N3CCC(c4nc5ccccc5c(=O)[nH]4)C3)CC2)cn1 (racemic) [Compound 10rac]	+++ (+++ indicate a value of at least 100)
